Values of other authors in patent EP0398143B1, “Labeled chemotactic peptides to image focal sites of infection or inflammation” (THE GENERAL HOSPITAL CORPORATION, priority 1989, dated 1990).
Non-standard residues stand in square brackets, D forms with d. Residues, ends and D or L forms follow the SMILES beside them. *: point of attachment. Nle = CCCC[C@H](N)C(=O)O; For = O=C*

Target: T1, receptors on human neutrophils (Homo sapiens, UniProt P21462)
T1 construct: host or cells: human neutrophils (endogenous receptor)
T1 sequence (P21462 1-350): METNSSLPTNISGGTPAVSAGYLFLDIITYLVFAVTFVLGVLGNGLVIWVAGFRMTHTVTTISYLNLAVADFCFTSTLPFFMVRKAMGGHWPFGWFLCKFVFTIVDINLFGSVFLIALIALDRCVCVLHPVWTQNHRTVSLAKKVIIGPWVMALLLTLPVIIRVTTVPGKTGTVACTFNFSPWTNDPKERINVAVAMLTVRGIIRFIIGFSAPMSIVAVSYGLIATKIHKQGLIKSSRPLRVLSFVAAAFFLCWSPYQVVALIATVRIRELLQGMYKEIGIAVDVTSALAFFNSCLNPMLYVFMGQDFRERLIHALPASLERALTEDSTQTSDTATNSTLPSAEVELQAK
Details: peptide labeled with ¹²⁵I at the Tyr residue

## CCCC[C@H](NC=O)C(=O)N[C@@H](CC(C)C)C(=O)N[C@@H](Cc1ccccc1)C(=O)N[C@@H](CCCC)C(=O)N[C@@H](Cc1ccc(O)cc1)C(=O)N[C@@H](CCCCN)C(=O)O [N-formyl-Nle-Leu-Phe-Nle-Tyr-Lys] (For-[Nle]LF[Nle]YK-OH)
  binding to receptors on human neutrophils: bind strongly
